Our source for the IC50 values is patent publication US12780800B1, “Triazole-pyridinyl substituted azacyclohexyl acetic acid compounds as LPA receptor antagonists” (Viva Star Biosciences Limited, priority 2021, dated 2022).

T1 sequence (Q92633 whole entry, the tested form may be a part): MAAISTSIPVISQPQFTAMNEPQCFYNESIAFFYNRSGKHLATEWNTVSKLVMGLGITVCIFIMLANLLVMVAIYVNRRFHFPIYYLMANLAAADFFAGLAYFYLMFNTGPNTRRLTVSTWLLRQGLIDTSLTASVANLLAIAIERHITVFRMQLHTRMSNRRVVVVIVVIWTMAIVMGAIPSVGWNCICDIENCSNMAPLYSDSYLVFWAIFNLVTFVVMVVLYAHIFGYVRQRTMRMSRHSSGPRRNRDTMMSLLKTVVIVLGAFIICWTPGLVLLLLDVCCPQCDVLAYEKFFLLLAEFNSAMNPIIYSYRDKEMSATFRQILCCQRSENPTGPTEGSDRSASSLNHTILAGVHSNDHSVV

This experiment addresses T1, LPA1 (Homo sapiens, UniProt Q92633).
T1 construct: ProLink (PK) beta-galactosidase enzyme-fragment tag; host or cells: CHO-K1
Description: LPA1 calcium flux assay (LPA1 functional antagonist assay). The class given is cell-based. The note with it: PathHunter CHO-K1 EDG2 β-Arrestin cell line; calcium indicator dye; stimulated with EC80 concentration of LPA; FLIPR Tetra. An outline of the steps:
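The LPA1 antagonist readout was intracellular calcium flux, and IC50 values were calculated from it. Plates stood 30 min at RT after compound addition. Cells, grown overnight, had first taken up calcium dye over 45 min at 37 °C.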
On the technique in general: A change in cytosolic calcium serves as a functional read-out for many receptors and channels.
The IC50 is the concentration that inhibits the measured activity by half. For the molecule `CCCc1cn(C)c(=O)c(OCc2c(-c3ccc(N4C[C@@H](CC(=O)O)CC(F)(F)C4)c(CC)n3)nnn2C)n1` [Example 110, (S)-2-(1-(2-ethyl-6-(1-methyl-5-(((4-methyl-3-oxo-6-propyl-3,4-dihydropyrazin-2-yl)oxy)methyl)-1H-1,2,3-triazol-4-yl)pyridin-3-yl)-5,5-difluoropiperidin-3-yl)acetic acid], the IC50 was above 5000 nM.

In the case of `CCCc1cnn(Cc2c(-c3ccc(CN4CC(C(=O)O)CC(F)(F)C4)c(C)n3)nnn2C)c(=O)c1` (single isomer, unassigned) [Example 158, (S) or (R)-5,5-difluoro-1-((2-methyl-6-(1-methyl-5-((6-oxo-4-propylpyridazin-1(6H)-yl)methyl)-1H-1,2,3-triazol-4-yl)pyridin-3-yl)methyl)piperidine-3-carboxylic acid], the IC50 was above 5000 nM.

For the molecule `CCCc1ccc(=O)n(Cc2c(-c3ccc(CN4CC(C(=O)O)CC(F)(F)C4)c(CC)n3)nnn2C)c1` (single isomer, unassigned) [Example 150, (R) or (S)-1-((2-ethyl-6-(1-methyl-5-((2-oxo-5-propylpyridin-1(2H)-yl)methyl)-1H-1,2,3-triazol-4-yl)pyridin-3-yl)methyl)-5,5-difluoropiperidine-3-carboxylic acid], the IC50 fell in the range of 100 to 500 nM.

`Cc1nc(-c2onc(C)c2COc2cc(-n3cccn3)ncn2)ccc1N1C[C@@H](CC(=O)O)CC(F)(F)C1` [Example 105, (S)-2-(1-(6-(4-(((6-(1H-pyrazol-1-yl)pyrimidin-4-yl)oxy)methyl)-3-methylisoxazol-5-yl)-2-methylpyridin-3-yl)-5,5-difluoropiperidin-3-yl)acetic acid]: the IC50 is below 100 nM.

Consider `CCc1nc(-c2nnn(C)c2COc2nnn(CC(C)C)n2)ccc1N1C[C@@H](CC(=O)O)CC(F)(F)C1` [Example 124, (S)-2-(1-(2-ethyl-6-(5-(((2-isobutyl-2H-tetrazol-5-yl)oxy)methyl)-1-methyl-1H-1,2,3-triazol-4-yl)pyridin-3-yl)-5,5-difluoropiperidin-3-yl)acetic acid], for which the 50% inhibitory concentration (IC50) was below 100 nM.

Consider `CCCc1ccc(=O)n(Cc2c(-c3ccc(N4CCC[C@H](CC(=O)O)C4)c(CC)n3)cnn2C)c1` [Example 42, (R)-2-(1-(2-ethyl-6-(1-methyl-5-((2-oxo-5-propylpyridin-1(2H)-yl)methyl)-1H-pyrazol-4-yl)pyridin-3-yl)piperidin-3-yl)acetic acid], for which the IC50 lay within 500 to 5000 nM.

`CCc1nc(-c2nnn(C)c2COc2ncnn2CC2CC2)ccc1N1C[C@@H](CC(=O)O)CC(F)(F)C1` [Example 122, (S)-2-(1-(6-(5-(((1-(cyclopropylmethyl)-1H-1,2,4-triazol-5-yl)oxy)methyl)-1-methyl-1H-1,2,3-triazol-4-yl)-2-ethylpyridin-3-yl)-5,5-difluoropiperidin-3-yl)acetic acid]: the IC50 lay in the range of 100 to 500 nM.

As to `CCCc1ccc(=O)n(Cc2c(-c3ncc(CN4CC(C(=O)O)CC(F)(F)C4)c(CC)n3)cnn2C)c1` (single isomer, unassigned) [Example 160, (S) or (R)-1-((4-ethyl-2-(1-methyl-5-((2-oxo-5-propylpyridin-1(2H)-yl)methyl)-1H-pyrazol-4-yl)pyrimidin-5-yl)methyl)-5,5-difluoropiperidine-3-carboxylic acid], the IC50 was in the range of 500 to 5000 nM.

With `CCc1nc(-c2nnn(C)c2COc2ncnn2CC(C)C)ccc1N1C[C@@H](CC(=O)O)CC(F)(F)C1` [Example 123, (S)-2-(1-(2-ethyl-6-(5-(((1-isobutyl-1H-1,2,4-triazol-5-yl)oxy)methyl)-1-methyl-1H-1,2,3-triazol-4-yl)pyridin-3-yl)-5,5-difluoropiperidin-3-yl)acetic acid], the IC50 lay in the range of 100 to 500 nM.

Consider `Cc1nc(-c2nnn(C)c2COc2nccc(C3CCC3)n2)ccc1CN1CC(C(=O)O)CC(F)(F)C1` (single isomer, unassigned) [Example 147, (S) or (R)-1-((6-(5-(((4-cyclobutylpyrimidin-2-yl)oxy)methyl)-1-methyl-1H-1,2,3-triazol-4-yl)-2-methylpyridin-3-yl)methyl)-5,5-difluoropiperidine-3-carboxylic acid], for which the IC50 is below 100 nM.

For the molecule `CCCN(C)C(=O)OCc1c(-c2ccc(N3CCC[C@H](CC(=O)O)C3)c(C)n2)nnn1C` [Example 144, (R)-2-(1-(2-methyl-6-(1-methyl-5-(((methyl(propyl)carbamoyl)oxy)methyl)-1H-1,2,3-triazol-4-yl)pyridin-3-yl)piperidin-3-yl)acetic acid], the IC50 lay within 500 to 5000 nM.

Regarding `CCCc1cc(=O)n(Cc2c(-c3ccc(N4C[C@@H](CC(=O)O)CC(F)(F)C4)c(CC)n3)nnn2C)cn1` [Example 31], the IC50 was above 5000 nM.

Take `CCc1nc(-c2nnn(C)c2Cn2cc(N3CCC3)ccc2=O)ccc1N1C[C@@H](CC(=O)O)CC(F)(F)C1` [Example 27, (S)-2-(1-(6-(5-((5-(azetidin-1-yl)-2-oxopyridin-1(2H)-yl)methyl)-1-methyl-1H-1,2,3-triazol-4-yl)-2-ethylpyridin-3-yl)-5,5-difluoropiperidin-3-yl)acetic acid]: the IC50 fell in the range of 500 to 5000 nM.

`CCc1nc(-c2nnn(C)c2Cn2cc(C#CC3CC3)ccc2=O)ccc1N1C[C@@H](CC(=O)O)CC(F)(F)C1` [Example 21, (S)-2-(1-(6-(5-((5-(cyclopropylethynyl)-2-oxopyridin-1(2H)-yl)methyl)-1-methyl-1H-1,2,3-triazol-4-yl)-2-ethylpyridin-3-yl)-5,5-difluoropiperidin-3-yl)acetic acid]: the 50% inhibitory concentration (IC50) is 500 to 5000 nM.

For `CCc1nc(-c2nnn(C)c2COc2cnn(CC3CC3)n2)ccc1N1C[C@@H](CC(=O)O)CC(F)(F)C1` [Example 127], the IC50 was in the range of 100 to 500 nM.

`Cc1nc(-c2nnn(C)c2CN2C[C@@H](CC3CC3)N(C)C2=O)ccc1N1C[C@@H](CC(=O)O)CC(F)(F)C1` [Example 62, 2-((S)-1-(6-(5-(((R)-4-(cyclopropylmethyl)-3-methyl-2-oxoimidazolidin-1-yl)methyl)-1-methyl-1H-1,2,3-triazol-4-yl)-2-methylpyridin-3-yl)-5,5-difluoropiperidin-3-yl)acetic acid]: the IC50 fell in the range of 500 to 5000 nM.

Regarding `CCc1nc(-c2nnn(C)c2Cn2nnnc2CC2CC2)ccc1N1C[C@@H](CC(=O)O)CC(F)(F)C1` [Example 138, 2-[(3S)-1-[6-(5-{[5-(cyclopropylmethyl)-1H-1,2,3,4-tetrazol-1-yl]methyl}-1-methyl-1H-1,2,3-triazol-4-yl)-2-ethylpyridin-3-yl]-5,5-difluoropiperidin-3-yl]acetic acid], the IC50 lay within 100 to 500 nM.

In the case of `Cc1nc(-c2nnn(C)c2Cn2ccc(CC3CC3)c(C)c2=O)ccc1N1C[C@@H](CC(=O)O)CC(F)(F)C1` [Example 2, (S)-2-(1-(6-(5-((4-(cyclopropylmethyl)-3-methyl-2-oxopyridin-1(2H)-yl)methyl)-1-methyl-1H-1,2,3-triazol-4-yl)-2-methylpyridin-3-yl)-5,5-difluoropiperidin-3-yl)acetic acid], the IC50 lay in the range of 500 to 5000 nM.

`CCc1nc(-c2nnn(C)c2COc2nccc(N3CCCC3)n2)ccc1N1CCC[C@H](CC(=O)O)C1` [Example 83, (R)-2-(1-(2-ethyl-6-(1-methyl-5-(((4-(pyrrolidin-1-yl)pyrimidin-2-yl)oxy)methyl)-1H-1,2,3-triazol-4-yl)pyridin-3-yl)piperidin-3-yl)acetic acid]: the IC50 lay within 100 to 500 nM.

As to `CCCc1ccc(=O)n(Cc2c(-c3cnc(N4CCCC(CC(=O)O)C4)cn3)nnn2C)c1` (centres unmarked) [Example 57, 2-(1-(5-(1-methyl-5-((2-oxo-5-propylpyridin-1(2H)-yl)methyl)-1H-1,2,3-triazol-4-yl)pyrazin-2-yl)piperidin-3-yl)acetic acid], the IC50 is above 5000 nM.

In the case of `CCCc1ccc(=O)n(Cc2c(-c3ccc(N4CCC[C@@H](CC(=O)O)C4)c(C#N)n3)nnn2C)c1` [Example 51, (S)-2-(1-(2-cyano-6-(1-methyl-5-((2-oxo-5-propylpyridin-1(2H)-yl)methyl)-1H-1,2,3-triazol-4-yl)pyridin-3-yl)piperidin-3-yl)acetic acid], the IC50 was above 5000 nM.

`Cc1nc(-c2nnn(C)c2COc2cc(-n3cccn3)ncn2)ccc1N1CCC[C@H](CC(=O)O)C1` [Example 85, (R)-2-(1-(6-(5-(((6-(1H-pyrazol-1-yl)pyrimidin-4-yl)oxy)methyl)-1-methyl-1H-1,2,3-triazol-4-yl)-2-methylpyridin-3-yl)piperidin-3-yl)acetic acid]: the IC50 was below 100 nM.

With `Cc1nc(-c2nnn(C)c2Cn2ccn(CC(C)C)c2=O)ccc1N1C[C@@H](CC(=O)O)CC(F)(F)C1` [Example 71, (S)-2-(5,5-difluoro-1-(6-(5-((3-isobutyl-2-oxo-2,3-dihydro-1H-imidazol-1-yl)methyl)-1-methyl-1H-1,2,3-triazol-4-yl)-2-methylpyridin-3-yl)piperidin-3-yl)acetic acid], the IC50 is above 5000 nM.

In the case of `CCCc1ccc(=O)n(Cc2c(-c3ccc(N4CCC[C@H](CC(=O)O)C4)c(C(F)(F)F)n3)nnn2C)c1` [Example 58, 2-[(3R)-1-(6-{1-methyl-5-[(2-oxo-5-propyl-1,2-dihydropyridin-1-yl)methyl]-1H-1,2,3-triazol-4-yl}-2-(trifluoromethyl)pyridin-3-yl)piperidin-3-yl]acetic acid], the IC50 was below 100 nM.

Consider `CCc1nc(-c2nnn(C)c2CNc2noc(C3CC3)n2)ccc1N1CC(CC(=O)O)CC(F)(F)C1` (stereo in doubt) [Example 115, (R)-2-(1-(6-(5-(((5-cyclopropyl-1,2,4-oxadiazol-3-yl)amino)methyl)-1-methyl-1H-1,2,3-triazol-4-yl)-2-ethylpyridin-3-yl)-5,5-difluoropiperidin-3-yl)acetic acid], for which the IC50 was above 5000 nM.

Regarding `CCCn1ccc(=O)c(OCc2c(-c3ccc(N4C[C@@H](CC(=O)O)CC(F)(F)C4)c(CC)n3)nnn2C)c1` [Example 107, (S)-2-(1-(2-ethyl-6-(1-methyl-5-(((4-oxo-1-propyl-1,4-dihydropyridin-3-yl)oxy)methyl)-1H-1,2,3-triazol-4-yl)pyridin-3-yl)-5,5-difluoropiperidin-3-yl)acetic acid], the IC50 was above 5000 nM.
